Experimental data from PubChem BioAssay (NCI).
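Grown in 96-well plates, cells were treated for 48 hours with each compound at five concentrations. Insufficient inhibition: endpoint recorded as highest concentration tested. At the GI50, growth is halved. The concentration for full growth arrest is given as TGI.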

Assays:
Experiment in all cases: NCI-60 cell line screen, 48 h
[1] = system: DU-145 prostate
[2] = system: SR leukemia
[3] = system: TK-10 renal
[4] = system: HS 578T breast
[5] = system: MALME-3M melanoma
[6] = system: CAKI-1 renal
[7] = system: K-562 leukemia
[8] = system: NCI-H460 lung
[9] = system: SK-MEL-2 melanoma
[10] = system: NCI-H522 lung
[11] = system: MCF7 breast
[12] = system: NCI-H226 lung
[13] = system: RPMI-8226 leukemia
[14] = system: SW-620 colon
[15] = system: IGROV1 ovarian
[16] = system: UACC-257 melanoma
[17] = system: RXF 393 renal
[18] = system: SF-268 CNS
[19] = system: A549 NSCLC
[20] = system: T-47D breast
[21] = system: HCC-2998 colon
[22] = system: HL-60(TB) leukemia
[23] = system: HCT-15 colon
[24] = system: HCT-116 colon
[25] = system: SF-295 CNS
[26] = system: MDA-MB-435
[27] = system: SK-MEL-28 melanoma
[28] = system: M14 melanoma
[29] = system: EKVX NSCLC
[30] = system: SF-539 CNS
[31] = system: MOLT-4 leukemia
[32] = system: 786-0 renal
[33] = system: OVCAR-4 ovarian
[34] = system: HT29 colon
[35] = system: COLO 205 colon
[36] = system: U251 CNS
[37] = system: UO-31 renal
[38] = system: HOP-62 NSCLC
[39] = system: OVCAR-8 ovarian
[40] = system: OVCAR-3 ovarian
[41] = system: NCI-H23 lung
[42] = system: NCI/ADR-RES ovarian
[43] = system: ACHN renal
[44] = system: PC-3 prostate
[45] = system: SNB-19 CNS
[46] = system: SK-OV-3 ovarian
[47] = system: SN12C renal
[48] = system: KM12 colon
[49] = system: CCRF-CEM leukemia
[50] = system: MDA-MB-231 breast
[51] = system: SK-MEL-5 melanoma
[52] = system: A498 renal
[53] = system: HOP-92 NSCLC
[54] = system: UACC-62 melanoma
[55] = system: LOX IMVI melanoma
[56] = system: SNB-75 CNS
[57] = system: OVCAR-5 ovarian

Compound: CNC(=O)OC(COC)CN1CCN(c2ccccc2C)CC1 (stereo not drawn)
- TGI [1]: > 10 µM
- TGI [2]: > 10 µM
- TGI [3]: > 10 µM
- TGI [4]: > 10 µM
- TGI [5]: > 10 µM
- TGI [6]: > 10 µM
- TGI [7]: > 10 µM
- TGI [8]: > 10 µM
- TGI [9]: > 10 µM
- TGI [10]: > 10 µM
- TGI [11]: > 10 µM
- TGI [12]: > 10 µM
- TGI [13]: > 10 µM
- TGI [14]: > 10 µM
- TGI [15]: > 10 µM
- TGI [16]: > 10 µM
- TGI [17]: > 10 µM
- TGI [18]: > 10 µM
- TGI [19]: > 10 µM
- TGI [20]: > 10 µM
- TGI [21]: > 10 µM
- TGI [22]: > 10 µM
- TGI [23]: > 10 µM
- TGI [24]: > 10 µM
- TGI [25]: > 10 µM
- TGI [26]: > 10 µM
- TGI [27]: > 10 µM
- TGI [28]: > 10 µM
- TGI [29]: > 10 µM
- TGI [30]: > 10 µM
- TGI [31]: > 10 µM
- TGI [32]: > 10 µM
- TGI [33]: > 10 µM
- TGI [34]: > 10 µM
- TGI [35]: > 10 µM
- TGI [36]: > 10 µM
- TGI [37]: > 10 µM
- TGI [38]: > 10 µM
- TGI [39]: > 10 µM
- TGI [40]: > 10 µM
- TGI [41]: > 10 µM
- TGI [42]: > 10 µM
- TGI [43]: > 10 µM
- TGI [44]: > 10 µM
- TGI [45]: > 10 µM
- TGI [46]: > 10 µM
- TGI [47]: > 10 µM
- TGI [48]: > 10 µM
- TGI [49]: > 10 µM
- TGI [50]: > 10 µM
- TGI [51]: > 10 µM
- TGI [52]: > 10 µM
- TGI [53]: > 10 µM
- TGI [54]: > 10 µM
- TGI [55]: > 10 µM
- TGI [56]: > 10 µM

Compound: N#Cc1c(N)nc(NCc2ccccc2)c(C#N)c1-c1ccc(Cl)cc1Cl
- GI50 [1]: > 100 µM
- TGI [1]: > 100 µM
- GI50 [2]: 2.07 µM
- TGI [2]: 21.8 µM
- GI50 [3]: > 84.3 µM
- TGI [3]: > 100 µM
- GI50 [4]: 85.7 µM
- TGI [4]: > 100 µM
- GI50 [5]: > 63.1 µM
- TGI [5]: > 100 µM
- GI50 [6]: > 100 µM
- TGI [6]: > 100 µM
- GI50 [57]: 96.9 µM
- TGI [57]: > 100 µM
- GI50 [7]: > 100 µM
- TGI [7]: > 100 µM
- GI50 [8]: > 69.4 µM
- TGI [8]: > 100 µM
- GI50 [9]: > 77.2 µM
- TGI [9]: > 100 µM
- GI50 [10]: > 68.7 µM
- TGI [10]: > 100 µM
- GI50 [11]: > 100 µM
- TGI [11]: > 100 µM
- GI50 [12]: > 100 µM
- TGI [12]: > 100 µM
- GI50 [13]: 33.5 µM
- TGI [13]: > 100 µM
- GI50 [14]: 74.4 µM
- TGI [14]: > 100 µM
- GI50 [15]: 40.5 µM
- TGI [15]: > 100 µM
- GI50 [16]: > 100 µM
- TGI [16]: > 100 µM
- GI50 [17]: 52.4 µM
- TGI [17]: > 100 µM
- TGI [18]: 1.18 µM
- GI50 [19]: > 100 µM
- TGI [19]: > 100 µM
- GI50 [20]: 72.3 µM
- TGI [20]: > 100 µM
- GI50 [21]: > 100 µM
- TGI [21]: > 100 µM
- TGI [22]: > 100 µM
- GI50 [23]: > 100 µM
- TGI [23]: > 100 µM
- GI50 [24]: > 100 µM
- TGI [24]: > 100 µM
- GI50 [25]: > 63.9 µM
- TGI [25]: > 100 µM
- GI50 [26]: > 46.8 µM
- TGI [26]: > 100 µM
- GI50 [27]: > 100 µM
- TGI [27]: > 100 µM
- GI50 [28]: > 53.4 µM
- TGI [28]: > 100 µM
- GI50 [29]: > 100 µM
- TGI [29]: > 100 µM
- GI50 [30]: > 100 µM
- TGI [30]: > 100 µM
- GI50 [31]: 34.6 µM
- TGI [31]: > 100 µM
- GI50 [32]: > 100 µM
- TGI [32]: > 100 µM
- GI50 [33]: 24.7 µM
- TGI [33]: 99.3 µM
- GI50 [34]: > 100 µM
- TGI [34]: > 100 µM
- GI50 [35]: > 100 µM
- TGI [35]: > 100 µM
- GI50 [36]: > 61.9 µM
- TGI [36]: > 100 µM
- GI50 [37]: > 100 µM
- TGI [37]: > 100 µM
- GI50 [38]: > 51.9 µM
- TGI [38]: > 85.9 µM
- GI50 [39]: > 67 µM
- TGI [39]: > 100 µM
- GI50 [40]: > 64.2 µM
- TGI [40]: > 100 µM
- GI50 [41]: > 76.1 µM
- TGI [41]: > 100 µM
- GI50 [42]: > 68.1 µM
- TGI [42]: > 100 µM
- GI50 [43]: > 100 µM
- TGI [43]: > 100 µM
- GI50 [44]: 55.7 µM
- TGI [44]: > 100 µM
- GI50 [45]: > 100 µM
- TGI [45]: > 100 µM
- GI50 [46]: > 100 µM
- TGI [46]: > 100 µM
- GI50 [47]: > 100 µM
- TGI [47]: > 100 µM
- GI50 [48]: > 84.5 µM
- TGI [48]: > 100 µM
- GI50 [49]: 10.2 µM
- TGI [49]: 28.6 µM
- GI50 [50]: > 100 µM
- TGI [50]: > 100 µM
- GI50 [51]: > 100 µM
- TGI [51]: > 100 µM
- GI50 [52]: > 100 µM
- TGI [52]: > 100 µM
- GI50 [53]: 1.12 µM
- TGI [53]: > 100 µM
- GI50 [54]: > 100 µM
- TGI [54]: > 100 µM
- GI50 [55]: > 100 µM
- TGI [55]: > 100 µM
- GI50 [56]: 22.9 µM
- TGI [56]: 99 µM
